Experimental data taken from ChEMBL document CHEMBL1201862, “PubChem BioAssay data set” (2004).
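In this assay, cells in 96-well plates receive the compound at five concentrations for 48 hours. Endpoints are linearly interpolated between the surrounding concentrations. GI50 = concentration required for 50% inhibition of growth.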 Calls of active or inactive are those of the source. Rule as the data show it: active = GI50 up to about 1.1 µM and inactive = higher.

Key:
Test in all cases: DTP human tumour cell line panel, 48 h
A498 = tested on: A498
BT-549 = tested on: BT-549
CAKI-1 = tested on: CAKI-1
COLO 205 = tested on: COLO 205
HCC 2998 = tested on: HCC 2998
HCT-116 = tested on: HCT-116
HOP-62 = tested on: HOP-62
K562 = tested on: K562
LOX IMVI = tested on: LOX IMVI
MCF7 = tested on: MCF7
MDA-MB-231 = tested on: MDA-MB-231
MDA-MB-435 = tested on: MDA-MB-435
MOLT-4 = tested on: MOLT-4
NCI-H23 = tested on: NCI-H23
NCI-H460 = tested on: NCI-H460
PC-3 = tested on: PC-3
SNB-19 = tested on: SNB-19
T47D = tested on: T47D
UACC-62 = tested on: UACC-62
UO-31 = tested on: UO-31

Structure (SMILES) | GI50 (A498) | GI50 (BT-549) | GI50 (CAKI-1) | GI50 (COLO 205) | GI50 (HCC 2998) | GI50 (HCT-116) | GI50 (HOP-62) | GI50 (K562) | GI50 (LOX IMVI) | GI50 (MCF7) | GI50 (MDA-MB-231) | GI50 (MDA-MB-435) | GI50 (MOLT-4) | GI50 (NCI-H23) | GI50 (NCI-H460) | GI50 (PC-3) | GI50 (SNB-19) | GI50 (T47D) | GI50 (UACC-62) | GI50 (UO-31)
Nc1ccn(C2CCC(CO)O2)c(=O)n1 (stereo not given) | > 91.8 µM (inactive) | > 1000 µM (inactive) | > 100 µM (inactive) | > 100 µM (inactive) | > 100 µM (inactive) | > 100 µM (inactive) | > 100 µM (inactive) | > 100 µM (inactive) | > 100 µM (inactive) | 99.8 µM (inactive) | > 1000 µM (inactive) | > 1000 µM (inactive) | 63.8 µM (inactive) | > 100 µM (inactive) | > 100 µM (inactive) | > 1000 µM (inactive) | > 100 µM (inactive) | > 1000 µM (inactive) | > 100 µM (inactive) | 836 µM (inactive)
OC[C@H]1CC(c2nn[nH]n2)[C@H](O)[C@@H]1O (stereo not given in full) | > 100 µM (inactive) | > 100 µM (inactive) |  | > 100 µM (inactive) | > 100 µM (inactive) | > 100 µM (inactive) | > 100 µM (inactive) | > 100 µM (inactive) | > 100 µM (inactive) | > 100 µM (inactive) | > 100 µM (inactive) | > 100 µM (inactive) | > 100 µM (inactive) | > 100 µM (inactive) | > 100 µM (inactive) | > 100 µM (inactive) | > 100 µM (inactive) | > 100 µM (inactive) | > 10 µM (inactive) | > 100 µM (inactive)
Cc1ccc(S(=O)(=O)C2=C([Si](C)(C)C)C3CC2[C@@H]2C4C=CC(CC4)[C@H]32)cc1 (stereo not given in full) | > 100 µM (inactive) | > 100 µM (inactive) | 82.6 µM (inactive) | > 100 µM (inactive) | > 100 µM (inactive) | > 100 µM (inactive) | 40.8 µM (inactive) | > 100 µM (inactive) | > 100 µM (inactive) | > 100 µM (inactive) | 26.5 µM (inactive) | > 100 µM (inactive) | > 100 µM (inactive) |  | 86.1 µM (inactive) | 35.3 µM (inactive) | 23.8 µM (inactive) | 37.9 µM (inactive) | 60.5 µM (inactive) | > 100 µM (inactive)
CC(=O)O[C@@H]1[C@@H](O)C2=C3[C@]4(C)[C@@H]1C(C)(C)C(=O)C[C@@H]4[C@]3(O)[C@H](OC(C)=O)[C@@]1(C[C@@H]1C)C2=O | 23.4 µM (inactive) | 16.1 µM (inactive) | 15.5 µM (inactive) | 18.4 µM (inactive) | 15.4 µM (inactive) | 16.1 µM (inactive) |  | 2.71 µM (inactive) | 14.8 µM (inactive) | 19 µM (inactive) | 19.7 µM (inactive) | 16 µM (inactive) | 26.6 µM (inactive) | 29.3 µM (inactive) | 15.5 µM (inactive) | 19.6 µM (inactive) | 21 µM (inactive) | 16.3 µM (inactive) | 13.7 µM (inactive) | 17.5 µM (inactive)
CCC1(O)CC(OC2CC(N(C)C)C(OC3CC(O)C(OC4CCC(=O)C(C)O4)C(C)O3)C(C)O2)c2c(cc3c(c2O)C(=O)c2c(O)ccc(O)c2C3=O)C1C(=O)OC (stereo not given) | < 0.01 µM (active) | < 0.0152 µM (active) | < 0.01 µM (active) | < 0.01 µM (active) | < 0.01 µM (active) | < 0.01 µM (active) | < 0.01 µM (active) | < 0.01 µM (active) | < 0.01 µM (active) | < 0.01 µM (active) | < 0.0132 µM (active) | < 0.0122 µM (active) | < 0.01 µM (active) | < 0.01 µM (active) | < 0.01 µM (active) | < 0.01 µM (active) | < 0.0127 µM (active) | < 0.01 µM (active) | < 0.01 µM (active) | < 0.01 µM (active)
Cc1ncc(CO)c(/C=N/CCCCCC/N=C/c2c(CO)cnc(C)c2[O-])c1[O-].[Mg+2] | > 100 µM (inactive) | > 100 µM (inactive) | > 100 µM (inactive) | > 100 µM (inactive) | > 100 µM (inactive) | > 100 µM (inactive) | > 100 µM (inactive) | > 100 µM (inactive) | > 100 µM (inactive) | > 60.1 µM (inactive) | > 100 µM (inactive) | > 100 µM (inactive) | > 100 µM (inactive) | > 100 µM (inactive) | > 100 µM (inactive) | > 100 µM (inactive) | > 100 µM (inactive) | > 100 µM (inactive) | > 100 µM (inactive) | > 100 µM (inactive)
CCOC(=O)C(=O)NNc1nc2c(s1)C(=O)c1ccccc1C2=O | 22.8 µM (inactive) | 10.9 µM (inactive) | 20.3 µM (inactive) | 12.4 µM (inactive) | 14.9 µM (inactive) | 2.68 µM (inactive) | 10.8 µM (inactive) | 2.3 µM (inactive) | 1.75 µM (inactive) | 15.6 µM (inactive) | 2.48 µM (inactive) | 1.77 µM (inactive) | 3.33 µM (inactive) | 2.24 µM (inactive) | 10.7 µM (inactive) | 12 µM (inactive) | 15.1 µM (inactive) | 17.8 µM (inactive) | 4.94 µM (inactive) | 2.29 µM (inactive)
CC(C)C[C@H](NC(=O)[C@H](Cc1ccc(F)cc1)NC(=O)c1ccccn1)B(O)O | < 0.01 µM (active) | < 0.01 µM (active) | < 0.01 µM (active) | < 0.01 µM (active) | < 0.01 µM (active) | < 0.01 µM (active) | < 0.01 µM (active) | < 0.01 µM (active) | < 0.01 µM (active) | < 0.01 µM (active) | < 0.01 µM (active) | < 0.01 µM (active) | < 0.01 µM (active) | < 0.01 µM (active) | < 0.01 µM (active) | < 0.01 µM (active) | < 0.01 µM (active) | < 0.01 µM (active) | < 0.01 µM (active) | < 0.01 µM (active)
CCc1n[nH]c(=O)n1CCO | > 100 µM (inactive) | > 100 µM (inactive) | > 100 µM (inactive) | > 100 µM (inactive) | > 100 µM (inactive) | > 100 µM (inactive) |  | > 100 µM (inactive) | > 100 µM (inactive) | > 100 µM (inactive) | > 100 µM (inactive) | > 100 µM (inactive) | > 100 µM (inactive) | > 100 µM (inactive) | > 100 µM (inactive) | > 100 µM (inactive) | > 100 µM (inactive) | > 100 µM (inactive) | > 100 µM (inactive) | > 100 µM (inactive)
CNC(c1ccncc1)C(NC)c1ccncc1 (stereo not given) | > 100 µM (inactive) | > 100 µM (inactive) | > 100 µM (inactive) | > 100 µM (inactive) | > 100 µM (inactive) | > 100 µM (inactive) | > 100 µM (inactive) | > 100 µM (inactive) | > 100 µM (inactive) | > 100 µM (inactive) | > 100 µM (inactive) | > 100 µM (inactive) | > 100 µM (inactive) | > 100 µM (inactive) |  | > 100 µM (inactive) | > 100 µM (inactive) | > 100 µM (inactive) | > 100 µM (inactive) | > 100 µM (inactive)
N#Cc1ccc(Nc2nc3[nH]cnc3c(=O)[nH]2)cc1 | > 100 µM (inactive) | > 100 µM (inactive) | > 100 µM (inactive) | > 100 µM (inactive) | > 100 µM (inactive) | > 100 µM (inactive) | > 100 µM (inactive) |  | > 100 µM (inactive) | > 100 µM (inactive) | > 100 µM (inactive) | > 100 µM (inactive) | > 100 µM (inactive) | > 100 µM (inactive) | > 100 µM (inactive) | > 100 µM (inactive) | > 100 µM (inactive) | > 100 µM (inactive) | > 100 µM (inactive) | > 100 µM (inactive)
[O-][n+]1cn[n+]([O-])c2ccccc21 | 61.4 µM (inactive) | 23.7 µM (inactive) | 18.9 µM (inactive) | 19.2 µM (inactive) | 27.1 µM (inactive) | 13.3 µM (inactive) | 17.9 µM (inactive) | 6.95 µM (inactive) | 23.9 µM (inactive) | 14.3 µM (inactive) | 14.3 µM (inactive) | 67.3 µM (inactive) | 2.91 µM (inactive) | 65.3 µM (inactive) |  | 11.7 µM (inactive) | 84.1 µM (inactive) | 5.97 µM (inactive) | 16.3 µM (inactive) | 28.3 µM (inactive)
CC(=O)OC1C2CCC1C1C2N=NN1c1ccc([N+](=O)[O-])cc1 (stereo not given) | > 100 µM (inactive) | > 100 µM (inactive) |  | > 100 µM (inactive) | > 100 µM (inactive) | > 100 µM (inactive) | > 100 µM (inactive) |  | > 100 µM (inactive) | > 100 µM (inactive) | > 100 µM (inactive) | > 100 µM (inactive) | > 100 µM (inactive) | > 100 µM (inactive) | > 100 µM (inactive) | > 100 µM (inactive) | > 100 µM (inactive) | > 100 µM (inactive) | > 100 µM (inactive) | > 100 µM (inactive)
COc1cc(/C=C2\CC(C)C/C(=C\c3ccc(O)c(OC)c3)C2=O)ccc1O (stereo not given) | 2.52 µM (inactive) | 3.23 µM (inactive) |  | 10.9 µM (inactive) | 3.21 µM (inactive) | 1.77 µM (inactive) | 3.46 µM (inactive) | 4.48 µM (inactive) | 2.29 µM (inactive) | 4.66 µM (inactive) | 2.06 µM (inactive) | 2.32 µM (inactive) | 2.29 µM (inactive) | 3.1 µM (inactive) | 2.88 µM (inactive) | 4 µM (inactive) | 10.2 µM (inactive) | 1.6 µM (inactive) | 1.85 µM (inactive) | 2.24 µM (inactive)
